Earlier results in US11890375B2, “Ophthalmic solution of difluprednate” (SUN PHARMA ADVANCED RESEARCH COMPANY LIMITED, priority 2015, dated 2024).

## CCCC(=O)O[C@]1(C(=O)COC(C)=O)CC[C@H]2[C@@H]3C[C@H](F)C4=CC(=O)C=C[C@]4(C)[C@@]3(F)[C@@H](O)C[C@@]21C [Difluprednate]
  solubility in aqueous vehicle: practically insoluble
